Data published in patent publication US8158657B2, “Heterocycles substituted pyridine derivatives and antifungal agent containing thereof” (Eisai R&D Management Co., Ltd., priority 2005, dated 2012).
In brackets after ≈: the same amount, converted by molar mass.

Tests used:
[1] = system: C. albicans CAF2-1 strain; experiment: Anti-Candida activity, MIC measurement; format: cell-based; details: CAF21STRAIN, C. albicans CAF2-1, RPMI1640, 42-48 hours at 35° C., visual inspection, read-out: Anti-Candida Activity (minimum inhibitory concentration, MIC)
In short: (§1)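 C. albicans CAF2-1 was grown 48 h at 30° C. in SDB and diluted in RPMI1640 to 1.2×10^3 cells/mL. Frozen A. fumigatus Tsukuba was diluted to 4.5×10^3 cells/mL. Compounds, two-fold serially diluted in DMSO from 2.5 mg/mL, were cultured aerobically with fungi for 42-48 h at 35° C.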

[2] = system: A. fumigatus Tsukuba strain; experiment: Anti-Aspergillus activity, MIC measurement; format: cell-based; details: RPMI1640, 42-48 hours at 35° C., visual inspection, read-out: Anti-Aspergillus Activity (minimum inhibitory concentration, MIC)
In short: as §1

SMILES | MIC [1] [µg/mL] | MIC [2] [µg/mL]
Nc1ccc(-c2cc(Cc3ccc(OCc4ccccn4)cc3)no2)cn1 [Example 177, 5-(3-(4-(Pyridin-2-ylmethoxy)-benzyl)-isoxazol-5-yl)-pyridin-2-ylamine] | 0.39 (≈ 1.09 µM) | 0.78 (≈ 2.18 µM)
Nc1ncccc1-c1cc(Cc2ccc(OCc3ccsc3)cc2)no1 [Example 77, 3-(3-(4-(Thiophen-3-ylmethoxy)-benzyl)-isoxazol-5-yl)-pyridin-2-ylamine] | 0.2 (≈ 0.55 µM) | 0.39 (≈ 1.07 µM)
Nc1ncccc1-c1cc(Cc2ccc(OCc3ccncc3)cc2)no1 [Example 49, 3-(3-(4-(Pyridin-4-ylmethoxy)-benzyl)-isoxazol-5-yl)-pyridin-2-ylamine] | 0.05 (≈ 0.14 µM) | 0.39 (≈ 1.09 µM)
Nc1ccc(-c2cc(Cc3ccc(OCc4ccc(F)cn4)c(F)c3)no2)c(N)n1 [Example 157, 3-(3-(3-Fluoro-4-(5-fluoro-pyridin-2-ylmethoxy)-benzyl)-isoxazol-5-yl)pyridin-2,6-diamine] | 3.13 (≈ 7.65 µM) | 0.78 (≈ 1.91 µM)
Nc1ccc(-c2cc(Cc3ccc(OCc4cc(Cl)ccn4)cc3)no2)cn1 [Example 183, 5-(3-(4-(4-Chloro-pyridin-2-ylmethoxy)-benzyl)-isoxazol-5-yl)-pyridin-2-ylamine] | 0.2 (≈ 0.509 µM) | 0.78 (≈ 1.99 µM)
Nc1ncccc1-c1cnn(Cc2ccc(Oc3ccccc3)cc2)c1 [Example 34, 3-(1-(4-Phenoxy-benzyl)-1H-pyrazol-4-yl)-pyridin-2-ylamine] | 0.78 (≈ 2.28 µM) | 0.39 (≈ 1.14 µM)
Nc1ccc(-c2cc(Cc3ccc(OCc4cccnc4)cc3)no2)c(N)n1 [Example 108, 3-(3-(4-(Pyridin-3-ylmethoxy)-benzyl)-isoxazol-5-yl)-pyridin-2,6-diamine] | 1.56 (≈ 4.18 µM) | 3.13 (≈ 8.38 µM)
Nc1ccc(-c2cc(Cc3ccc(Oc4ccccc4F)nc3)no2)cn1 [Example 185, 5-(3-(6-(2-Fluoro-phenoxy)-pyridin-3-ylmethyl)-isoxazol-5-yl)-pyridin-2-ylamine] | 0.78 (≈ 2.15 µM) | 0.78 (≈ 2.15 µM)
Nc1ncccc1-c1cc(Cc2ccc(Oc3ccccn3)cc2)no1 [Example 209, 3-(3-(4-(Pyridin-2-yloxy)-benzyl)-isoxazol-5-yl)-pyridin-2-ylamine] | 0.2 (≈ 0.581 µM) | 0.39 (≈ 1.13 µM)
Nc1ncc(F)cc1-c1cc(Cc2ccc(OCc3ccc(F)cn3)cc2)no1 [Example 174, 5-Fluoro-3-(3-(4-(5-fluoro-pyridin-2-ylmethoxy)-benzyl)-isoxazol-5-yl)pyridin-2-ylamine] | 6.25 (≈ 15.8 µM) | 1.56 (≈ 3.96 µM)
Nc1ccc(-c2cc(Cc3ccc(OCc4ccccn4)cc3F)no2)c(N)n1 [Example 158, 3-(3-(2-Fluoro-4-(pyridin-2-ylmethoxy)-benzyl)-isoxazol-5-yl)-pyridin-2,6-diamine] | 1.56 (≈ 3.99 µM) | 3.13 (≈ 8 µM)
Nc1ccc(-c2cc(Cc3ccc(COc4ccc(F)cc4)nc3)no2)c(N)n1 [Example 132, 3-(3-(6-(4-Fluoro-phenoxymethyl)-pyridin-3-ylmethyl)-isoxazol-5-yl)pyridin-2,6-diamine] | 3.13 (≈ 8 µM) | 3.13 (≈ 8 µM)
Nc1ncccc1-c1cc(Cc2ccc(OCc3ccc(F)cc3)cc2)no1 [Example 7, 3-(3-(4-(4-Fluoro-benzyloxy)-benzyl)-isoxazol-5-yl)-pyridin-2-ylamine] | 1.56 (≈ 4.16 µM) | 0.2 (≈ 0.533 µM)
Nc1ncccc1-c1cc(Cc2ccc(Sc3ccccc3)nc2)no1 [Example 97, 3-(3-(6-Phenylsulfanyl-pyridin-3-ylmethyl)-isoxazol-5-yl)-pyridin-2-ylamine] | 0.39 (≈ 1.08 µM) | 0.2 (≈ 0.555 µM)
C#CCOCc1ccc(Cn2cc(-c3cccnc3N)cn2)cc1 [Example 194, 3-(1-(4-Prop-2-ynyloxymethyl-benzyl)-1H-pyrazol-4-yl)-pyridin-2-ylamine] | 1.56 (≈ 4.9 µM) | 3.13 (≈ 9.83 µM)
CCCCOc1cccc(Cc2cc(-c3ccc(N)nc3N)on2)c1 [Example 124, 3-(3-(3-Butoxy-benzyl)-isoxazol-5-yl)-pyridin-2,6-diamine] | 0.2 (≈ 0.591 µM) | 0.39 (≈ 1.15 µM)
Nc1ccc(-c2cc(Cc3ccc(Oc4cccc(F)c4)cc3)no2)c(N)n1 [Example 142, 3-(3-(4-(3-Fluoro-phenoxy)-benzyl)-isoxazol-5-yl)-pyridin-2,6-diamine] | 0.39 (≈ 1.04 µM) | 0.39 (≈ 1.04 µM)
Nc1ncccc1-c1cc(Cc2cccc(OCC3CC3)c2)no1 [Example 66, 3-(3-(3-Cyclopropylmethoxy-benzyl)-isoxazol-5-yl)-pyridin-2-ylamine] | 0.1 (≈ 0.311 µM) | 0.78 (≈ 2.43 µM)
Nc1ncccc1-c1cc(Cc2ccc(COc3cc(F)ccn3)cc2)no1 [Example 59, 3-(3-(4-(4-Fluoro-pyridin-2-yloxymethyl)-benzyl)-isoxazol-5-yl)-pyridin-2-ylamine] | 0.39 (≈ 1.04 µM) | 0.39 (≈ 1.04 µM)
CCCCOc1cccc(Cc2cc(-c3cccnc3N)on2)c1 [Example 65, 3-(3-(3-Butoxy-benzyl)-isoxazol-5-yl)-pyridin-2-ylamine] | 0.39 (≈ 1.21 µM) | 0.78 (≈ 2.41 µM)
Nc1ccc(-c2cc(Cc3ccc(OCc4cccc(F)c4)cc3)no2)c(N)n1 [Example 19, 3-(3-(4-(3-Fluoro-benzyloxy)-benzyl)-isoxazol-5-yl)-pyridin-2,6-diamine] | 0.78 (≈ 2 µM) | 0.39 (≈ 0.999 µM)

SMILES | MIC [1] [µg/mL] | MIC [2] [µg/mL]
Cc1nc(N)ccc1-c1cc(Cc2ccc(OCc3ccccc3)cc2)no1 [Example 188, 5-(3-(4-Benzyloxy-benzyl)-isoxazol-5-yl)-6-methyl-pyridin-2-ylamine] | 1.56 (≈ 4.2 µM) | 0.78 (≈ 2.1 µM)
Nc1ncccc1-c1cc(Cc2cccc(OCc3ccccn3)c2)no1 [Example 60, 3-(3-(3-(Pyridin-2-ylmethoxy)-benzyl)-isoxazol-5-yl)-pyridin-2-ylamine] | 0.2 (≈ 0.558 µM) | 1.56 (≈ 4.35 µM)
Nc1ccc(-c2cc(Cc3ccc(Cc4ccc(F)cc4)o3)no2)c(N)n1 [Example 221, 3-(3-(5-(4-Fluoro-benzyl)-furan-2-ylmethyl)-isoxazol-5-yl)-pyridin-2,6-diamine] | 1.56 (≈ 4.28 µM) | 0.39 (≈ 1.07 µM)
CCCCc1ccc(Cc2cc(-c3cccnc3N)on2)cc1 [Example 70, 3-(3-(4-Butyl-benzyl)-isoxazol-5-yl)-pyridin-2-ylamine] | 1.56 (≈ 5.07 µM) | 0.39 (≈ 1.27 µM)
Nc1ccc(-c2cc(Cc3ccc(Oc4ccc(F)cc4)cc3)no2)c(N)n1 [Example 141, 3-(3-(4-(4-Fluoro-phenoxy)-benzyl)-isoxazol-5-yl)-pyridin-2,6-diamine] | 0.39 (≈ 1.04 µM) | 0.2 (≈ 0.531 µM)
Nc1ccc(-c2cc(Cc3cccc(OCc4ccccc4)c3)no2)c(N)n1 [Example 119, 3-(3-(3-Benzyloxy-benzyl)-isoxazol-5-yl)-pyridin-2,6-diamine] | 0.39 (≈ 1.05 µM) | 0.78 (≈ 2.09 µM)
COCC(=O)Nc1ccc(-c2cc(Cc3ccc(OCc4ccccc4)nc3)no2)c(N)n1 [Example 226, N-(6-Amino-5-(3-(6-benzyloxy-pyridin-3-ylmethyl)-isoxazol-5-yl)-pyridin-2-yl)-2-methoxy-acetamide] | 0.39 (≈ 0.875 µM) | 0.39 (≈ 0.875 µM)
Nc1ncccc1-c1cc(Cc2ccc(Oc3ccccc3)nc2)no1 [Example 53, 3-(3-(6-Phenoxy-pyridin-3-ylmethyl)-isoxazol-5-yl)-pyridin-2-ylamine] | 0.2 (≈ 0.581 µM) | 0.2 (≈ 0.581 µM)
Nc1ccc(-c2cc(Cc3ccc(OCc4ccccn4)cc3)no2)c(N)n1 [Example 22, 3-(3-(4-(Pyridin-2-ylmethoxy)-benzyl)-isoxazol-5-yl)-pyridin-2,6-diamine] | 0.2 (≈ 0.536 µM) | 0.39 (≈ 1.04 µM)
Nc1ccc(-c2cc(Cc3ccc(Br)cc3)no2)c(N)n1 [Example 220, 3-(3-(4-Bromo-benzyl)-isoxazol-5-yl)-pyridine-2,6-diamine] | 6.25 (≈ 18.1 µM) | 6.25 (≈ 18.1 µM)
Nc1ccc(-c2cc(Cc3ccc(OCc4ccccc4)cn3)no2)c(N)n1 [Example 127, 3-(3-(5-Benzyloxy-pyridin-2-ylmethyl)-isoxazol-5-yl)-pyridin-2,6-diamine] | 0.78 (≈ 2.09 µM) | 1.56 (≈ 4.18 µM)
Cc1ccc(Oc2ccc(Cc3cc(-c4cccnc4N)on3)s2)cc1 [Example 48, 3-(3-(5-p-Tolyloxy-thiophen-2-ylmethyl)-isoxazol-5-yl)-pyridin-2-ylamine] | 0.39 (≈ 1.07 µM) | 0.2 (≈ 0.55 µM)
Nc1ncccc1-c1cc(Cc2cccc(-c3ccccc3)c2)no1 [Example 85, 3-(3-Biphenyl-3-ylmethyl-isoxazol-5-yl)-pyridin-2-ylamine] | 1.56 (≈ 4.77 µM) | 3.13 (≈ 9.56 µM)
Nc1ncccc1-c1cc(Cc2ccc(OCc3ccccn3)cc2F)no1 [Example 95, 3-(3-(2-Fluoro-4-(pyridin-2-ylmethoxy)-benzyl)-isoxazol-5-yl)-pyridin-2-ylamine] | 0.39 (≈ 1.04 µM) | 1.56 (≈ 4.14 µM)
Nc1ccc(-c2cc(Cc3ccc(COc4ccccn4)cc3F)no2)c(N)n1 [Example 211, 3-(3-(2-Fluoro-4-(pyridin-2-yloxymethyl)-benzyl)-isoxazol-5-yl)-pyridin-2,6-diamine] | 0.39 (≈ 0.996 µM) | 0.39 (≈ 0.996 µM)
CCCCOCc1ccc(Cc2cc(-c3cccnc3N)on2)cc1 [Example 4, 3-(3-(4-Butoxymethyl-benzyl)-isoxazol-5-yl)-pyridin-2-ylamine] | 0.2 (≈ 0.593 µM) | 0.39 (≈ 1.16 µM)
Nc1ncccc1-c1cc(Cc2ccc(OCc3ccc(F)cc3F)nc2)no1 [Example 90, 3-(3-(6-(2,4-Difluoro-benzyloxy)-pyridin-3-ylmethyl)-isoxazol-5-yl)-pyridin-2-ylamine] | 1.56 (≈ 3.96 µM) | 0.39 (≈ 0.989 µM)
Cc1ccc(COc2ccc(Cc3cc(-c4ccc(N)nc4N)on3)cc2)nc1 [Example 101] | 1.56 (≈ 4.03 µM) | 1.56 (≈ 4.03 µM)
Nc1ncccc1-c1cc(Cc2ccc(Oc3ccccc3F)cc2)no1 [Example 83] | 0.2 (≈ 0.553 µM) | 0.2 (≈ 0.553 µM)
CN(C)c1ncccc1-c1cc(Cc2ccc(OCc3ccccc3)cc2)no1 [Example 228, (3-(3-(4-Benzyloxy-benzyl)-isoxazol-5-yl)-pyridin-2-yl)-dimethyl-amine] | 0.78 (≈ 2.02 µM) | 0.78 (≈ 2.02 µM)
